{
  "source": "patent US20080214398A1",
  "about": "“Herbicidal activities of combinations of sodium azide with sulfur containing and other deactivating compounds” (priority 2005, published 2008)",
  "key": {"[1]": {"tested_on": "Morningglory (Ipomoea spp.)", "format": "in vivo", "source_text": "Compounds: Sodium azide, metam sodium (Vapam HL), EPTC, sodium thiosulfate, and methyl disulfide were delivered in aqueous solutions or emulsions (5% of SEP 100 for sodium azide; 5% for Vapam; 0.25% for EPTC, 2.5% for sodium thiosulfate; 2.5% for methyl disulfide) prepared immediately before use by diluting in demineralized water while stirring with a magnetic stirrer.\nSources: SEP 100 from American Pacific Corp., metam sodium as Vapam HL (32, 7% a.i.) from AMVAC, EPTC from Gowen, sodium thiosulfate and methyl disulfide from Aldrich.\nRates: Metam sodium at 163.5 mgs a.i./kg soil-equivalent to 0, and 327 lbs a.i./acre (120 gal Vapam HL/A). Sodium azide at 75 mgs a.i./kg soil equivalent to 150 lbs a.i./A, sodium thiosulfate at 200 and 300 lbs/A; EPTC at 8 and 10 lbs/A, and methyl disulfide at 300 lbs/A.\nAll different possible combinations of sodium azide with the other deactivating compounds and their corresponding rates were included in the experiment together with the appropriate controls.\nApplication Method and Procedure: Each treatment was delivered by drenching in 100 mls aqueous volume onto the soil surface in pots (10-cm diam; PVC) containing 1 kg soil. The soil was from a cotton field (silt loam; pH 6.2; CEC<10 meq/100 gm soil; org. matter <1.0%). Sodium azide was applied on day one, and the other compounds four days later. Immediately after treatment the pots were covered by a thick (1.5 mil) clear low density polyethylene bag held tight against the outer wall of the pot by a rubber band. Three days after application of “deactivator compounds” the bags were removed and the pots were planted with morningglory seed (25 seed/pot). Counts were taken from each pot (experimental unit) at 10, 13, and 26 days after application of sodium azide. Morningglory plant tops were collected from each pot 33 days after initiation of the experiment and fresh weights were determined.\nMajor Pests: Morningglory (Ipomoea spp.)\nExperimental Design: Randomized complete block with seven replications/treatment.\nStatistical Analyses: Anova and Fischer's least significant difference (flsd) at p 0.05. Regression analyses."}, "[2]": {"tested_on": "annual morningglory (Ipomoea spp.)", "format": "in vivo", "source_text": "The effects on herbicidal activity of combinations of SEP 100 (Na azide) with metam Na, Na thiosulfate, methyl disulfide and the herbicide EPTC (Eptam 7E, Eradicane 6.7E) were studied in greenhouse experiments. In a first experiment SEP 100 was applied by drenching (1″ acre water) at 150 lbs a.i./A to pots (4 inch diam; PVC) containing each 2.2 pounds of silt loam (pH 6.2; org. matter <1.0%) from a cotton field. Immediately after treatment each pot was covered with a clear polyethylene bag (1.5 mil). The bags were removed 4 days after, and additional applications were drenched in with: Vapam HL, at 120 gal/A; EPTC at 8 and 10 lbs ai/A; Na thiosulfate at 200 and 300 lbs ai/A; and methyl disulfide at 300 lbs ai/A. Pots were again covered with the bags for 3 days after which they were removed and pots planted with annual morningglory (Ipomoea spp.; 25 seed/pot). Some pots received only SEP 100 and others received water only. Each treatment was represented by 7 pots (experimental units) arranged in a randomized complete block design on a bench. The number of plants in each pot was determined at 10, 13, and 26 days after application of SEP 100. Momingglory plant tops were collected from each pot 33 days after initiation of the experiment and their fresh weight was determined."}, "[3]": {"tested_on": "morningglory", "source_text": "Compounds: sodium azide and metam sodium (Vapam HL) were delivered in aqueous solutions (1.0% of SEP 100 for sodium azide; 5% for Vapam) prepared immediately before use by diluting in demineralized water while stirring with a magnetic stirrer.\nSource: SEP 100 from American Pacific Corp., and metam sodium as Vapam HL (32, 7% a.i.) from AMVAC.\nRates: Metam sodium at 0, and 82 mgs a.i./kg soil-equivalent to 0, and 60 gal/A. Sodium azide at 0, 20, 40 and 60 mgs a.i./kg soil equivalent to 0, 40, 80, and 120 lbs a.i./A, respectively. Each metam sodium rate was applied to soil in combination with each sodium azide dose."}, "[4]": {"tested_on": "morningglory", "assay": "Example 2 greenhouse pot experiment, fixed Vapam HL rate with SEP 100 rates", "format": "in vivo, Ipomoea spp.", "conditions": "Vapam HL 60 gal/A on soil treated with SEP 100 40-120 lbs a.i./A", "source_text": "The effects on herbicidal activity of combinations of SEP 100 (Na azide) with metam Na, Na thiosulfate, methyl disulfide and the herbicide EPTC (Eptam 7E, Eradicane 6.7E) were studied in greenhouse experiments. In a first experiment SEP 100 was applied by drenching (1″ acre water) at 150 lbs a.i./A to pots (4 inch diam; PVC) containing each 2.2 pounds of silt loam (pH 6.2; org. matter <1.0%) from a cotton field. Immediately after treatment each pot was covered with a clear polyethylene bag (1.5 mil). […] The number of plants in each pot was determined at 10, 13, and 26 days after application of SEP 100. Momingglory plant tops were collected from each pot 33 days after initiation of the experiment and their fresh weight was determined.\nA second experiment explored the interaction between a fixed rate of Vapam HL (60 gal/A) and applications of SEP 100 in the 40-120 lbs a.i./A range. The methods and procedure followed were as for the first experiment except that weed counts were taken at 13 and 17 days after application and plant top weights were determined 32 days after initiation of the experiment."}, "[5]": {"tested_on": "warm season turf species", "conditions": "cited from earlier work"}, "[6]": {"conditions": "applied 4 days after sodium azide 150 lbs a.i./A, metam sodium 327 lbs a.i./acre, sodium thiosulfate 200 and 300 lbs/A, methyl disulfide 300 lbs/A, 10, 13, 26 days"}},
  "note": "Entries after “also recorded” stand apart in the source; their conditions may differ. Like-named read-outs stand apart in the source and are kept apart here.",
  "data": [
    {"smiles": "CCCN(CCC)C(=O)SCC", "note": "[EPTC, S-ethyl dipropylthiocarbamate]", "values": [
      {"measurement": "herbicidal activity against morningglory", "setting": "[1]; EPTC 8 and 10 lbs/A, sodium azide 150 lbs a.i./A", "result": "strongly herbicidal"},
      {"measurement": "herbicidal activity against morningglory", "setting": "[2]; EPTC 8 and 10 lbs ai/A, SEP 100 150 lbs a.i./A", "result": "strongly herbicidal"}
    ]},
    {"smiles": "CNC(=S)S", "note": "[metam sodium, sodium methyl dithiocarbamate]", "values": [
      {"measurement": "effect on herbicidal activity of sodium azide (number of morningglory plants per pot, FIGS. 3A-3C)", "setting": "[1]; [6]", "result": "significantly reduced the herbicidal activity of sodium azide; also recorded: nullified the herbicidal activity of sodium azide"},
      {"measurement": "morningglory growth / top weights (FIG. 3D)", "setting": "[1]; sodium azide 150 lbs a.i./A, then metam sodium 327 lbs a.i./acre, 33 days", "result": "synergistic beneficial effects"},
      {"measurement": "effect on morningglory top weights", "setting": "[3]; metam sodium 60 gal/A on soil previously treated with sodium azide", "result": "synergistic beneficial effects"},
      {"measurement": "effect on herbicidal activity of sodium azide (number of morningglory plants per pot, FIGS. 4A-4C)", "setting": "[3]; metam sodium 60 gal/A with sodium azide 0, 40, 80, 120 lbs a.i./A, 13, 17, 30 days", "result": "nullified the herbicidal activity of sodium azide"},
      {"measurement": "effect on morningglory top weights (FIG. 2B)", "setting": "[4]; 32 days", "result": "diminished herbicidal activity of sodium azide"},
      {"measurement": "effect on herbicidal activity of Na azide (number of morningglory plants, FIG. 2A)", "setting": "[4]; counts at 13 and 17 days", "result": "diminishes the herbicidal activity of sodium azide"}
    ]},
    {"smiles": "CSSC", "note": "[methyl disulfide]", "values": [
      {"measurement": "effect on herbicidal activity of sodium azide (number of morningglory plants per pot, FIGS. 3A-3C)", "setting": "[1]; [6]", "result": "inconclusive"},
      {"measurement": "effect on herbicidal activity of Na azide (number of morningglory plants, FIG. 1A)", "setting": "[2]; applied 4 days after SEP 100 150 lbs a.i./A, Vapam HL 120 gal/A, Na thiosulfate 200 and 300 lbs ai/A, methyl disulfide 300 lbs ai/A, counts at 10, 13, 26 days", "result": "little effect"}
    ]},
    {"smiles": "[N-]=[N+]=[N-]", "note": "[sodium azide]", "values": [
      {"measurement": "plant back interval required for successful establishment", "setting": "[5]", "result": "3-4 weeks"}
    ]},
    {"smiles": "O=S([O-])([O-])=S.[Na+].[Na+]", "note": "[sodium thiosulfate]", "values": [
      {"measurement": "effect on herbicidal activity of sodium azide (number of morningglory plants per pot, FIGS. 3A-3C)", "setting": "[1]; in vivo", "result": "inconclusive"},
      {"measurement": "effect on herbicidal activity of Na azide (number of morningglory plants, FIG. 1A)", "setting": "[2]; in vivo", "result": "little effect"}
    ]}
  ]
}
